Experimental data: patent US4335111A, “Compounds associating peptidyl of aminoacyl residues to lipophilic groups and pharmaceutical compositions containing said new compounds” (priority 1978, dated 1982)

Tests used:
Klebsiella pneumoniae = assay: Anti-infectious activity: protection of mice inoculated with Klebsiella pneumoniae; format: in vivo; settings: for Protection (%) / Survival at day 10 of infection No/total: 100 μg i.v. at day -1; for Protection (%): i.m. infection with 1.5 × 10^4 viable organisms, difference between percentages of survivors in treated and control group; for Survival at day 10 of infection No/total: infection by the intramuscular route with 1.5 × 10^4 viable organisms; for % protection: difference of percentages of survivors, treated vs control group
rabbits = settings: doses as high as 5 mg/kg of body weight
[1] = concentration as high as 100 μg/ml
adrenalectomized mice = settings: 100 μg injected intravenously into five adrenalectomized mice
[2] = 100 μg i.v. 24 H before infection, infection 3.10^4 K.p. i.m., 24 mice at day 0
[3] = 100 μg i.v. 24 H before infection, infection 4.10^3 K.p. i.v., 24 mice at day 0 (8 for glyceryl-mycolate)

| Compound | Protection (%) (Klebsiella pneumoniae) | Survival at day 10 of infection No/total (Klebsiella pneumoniae) | other results |
| --- | --- | --- | --- |
| 1-O(L-Ala-D-isoAsn-L-Ala)-glycerol-3-mycolate | 37% | 16/32 | – |
| 1-O(L-alanyl-D-isoglutaminyl-L-alanyl)glycerol-3-mycolate | 70% | 31/40 | hyperthermizing (pyrogenic) effect (rabbits): no hyperthermizing effect; Number of mice day 3 (Klebsiella pneumoniae; [2]): 23; Number of mice day 5 (Klebsiella pneumoniae; [2]): 20; Number of mice day 10 (Klebsiella pneumoniae; [2]): 17; % protection (Klebsiella pneumoniae; 100 μg i.v. 24 H before infection, infection 3.10^4 K.p. i.m.): 37%; Number of mice day 3 (Klebsiella pneumoniae; [3]): 21; Number of mice day 5 (Klebsiella pneumoniae; [3]): 21; Number of mice day 10 (Klebsiella pneumoniae; [3]): 21; % protection (Klebsiella pneumoniae; 100 μg i.v. 24 H before infection, infection 4.10^3 K.p. i.v.): 79%; Limulus test result [1]: negative; death of adrenalectomized mice (adrenalectomized mice): did not cause death of any of them |
| 1-O-(D-isoGln-L-Ala)-glycerol-3-mycolate hydrochloride | 47% | 28/49 | – |
| 1-O-(L-Ala-D-Gln-L-Ala)-glycerol-3-mycolate | 12% | 8/32 | – |
| 1-O-(L-Ala-D-isoGln-L-Ala)-glycerol-3-corynomycolate | 28% | 11/32 | – |
| 1-O-(L-alanyl)-glycerol-3-mycolate hydrochloride [1-O--(L--Ala)--glycerol-3-mycolate] | 35% | 16/40 | – |
| 1-O-(L-alanyl-L-isoglutaminyl-L-alanyl)-glycerol-3-mycolate hydrochloride | 12% | 7/32 | – |
| 1-O-(β-Ala-D-isoGln-L-Ala)-glycerol-3-mycolate hydrochloride | 25% | 12/32 | – |
| CCCCCCCCCCCCCCCCCC(=O)OCC(COC(=O)[C@H](C)NC(=O)CC[C@@H](NC(=O)[C@H](C)N)C(N)=O)OC(=O)CCCCCCCCCCCCCCCCC.Cl (stereo partly drawn) [1-O-(L-Ala-D-isoGln-L-Ala)-glycerol-2,3-distearate hydrochloride] | 12% | 5/24 | – |
| CCCCCCCCCCCCCCCCCC(=O)OCC(O)COC(=O)[C@H](C)NC(=O)CC[C@@H](NC(=O)[C@H](C)N)C(N)=O.Cl (stereo partly drawn) [1-O-(L-Ala-D-isoGln-L-Ala)-glycerol-3-stearate hydrochloride] | 8% | 4/24 | – |
| CCCCCCCCCCOC(=O)C(C)NC(=O)CCC(NC(=O)C(C)N)C(N)=O.Cl [DP--L--Ala--decyl ester, L-Ala-D-isoGln-L-Ala-n-decylester hydrochloride] | 0% | 1/24 | – |
| CCCCCCCCCCCCCCCOC(=O)[C@H](C)NC(=O)CC[C@@H](NC(=O)[C@H](C)N)C(N)=O.Cl [DP--L--Ala--pentadecylester, L-Ala-D-isoGln-L-Alan-n-pentadecylester hydrochloride] | 4% | 4/32 | – |
| glycerol-3-mycolate [Glyceryl-mycolate, reference compound] | – | – | Number of mice day 3 (Klebsiella pneumoniae; mouse, in vivo, iv): 1; Number of mice day 5 (Klebsiella pneumoniae; mouse, in vivo, iv): 1; Number of mice day 10 (Klebsiella pneumoniae; mouse, in vivo, iv): 1; anti-infectious activity (in words) (Klebsiella pneumoniae; mouse, in vivo, iv): devoid of significant activity |
